Test results published in the NIST ThermoML archive (doi:10.1007/s10765-009-0667-2).
“And” between values parts separate entries of the source, which are not always exact repeats. Equal values may be shown once.

Tests used:
[1] = 101 kPa, Liquid; for mass density: Vibrating tube method
[2] = xn = mol fraction of the nth substance listed; conditions: 101 kPa, Liquid; for mass density: Vibrating tube method

c1ccccc1 [benzene]
[1]
Conditions | mass density [kg/m3] | viscosity [mPa·s]
308.15 K | 862.9 | 0.5272
313.15 K | 857.7 | 0.4942

Cc1ccccc1 [toluene]
[1]
Conditions | mass density [kg/m3] | viscosity
308.15 K | 852.8 | 0.494 mPa·s
313.15 K | 848.3 | 0.4676 mPa·s and 0.4755 mPa·s
318.15 K | 848.3 | –

C1CCCCCCC1 [cyclooctane]
[1]
Conditions | mass density [kg/m3] | viscosity [mPa·s]
308.15 K | 823.6 | 1.803
313.15 K | 819.7 | 1.636

CCCCCCC [heptane]
[1]
Conditions | mass density [kg/m3] | viscosity [mPa·s]
308.15 K | 671.3 | 0.3497
313.15 K | 667.1 | 0.3329

CCc1ccccc1 [ethylbenzene] + Cc1ccccc1
[2]
Conditions | mass density, 308.15 K [kg/m3] | mass density, 318.15 K [kg/m3] | viscosity, 308.15 K [mPa·s] | viscosity, 313.15 K [mPa·s]
x2 = 0 | 853.7 | 849.5 | 0.5652 | 0.5294
x2 = 0.0424 | 853.7 | 849.5 | 0.5587 | 0.5306
x2 = 0.128 | 853.7 | 849.4 | 0.5587 | 0.525
x2 = 0.2164 | 853.6 | 849.3 | 0.5471 | 0.5185
x2 = 0.2928 | 853.6 | 849.3 | 0.5408 | 0.5124
x2 = 0.393 | 853.5 | 849.2 | 0.5379 | 0.5186
x2 = 0.4922 | 853.4 | 849.1 | 0.5349 | 0.5022
x2 = 0.5716 | 853.4 | 849 | 0.5243 | 0.4968
x2 = 0.7107 | 853.2 | 848.8 | 0.5125 | 0.4853
x2 = 0.8425 | 853 | 848.6 | 0.5108 | 0.4781

CCc1ccccc1 [ethylbenzene] + CCCCCCC
[2]
Conditions | mass density, 308.15 K [kg/m3] | mass density, 313.15 K [kg/m3] | viscosity, 308.15 K [mPa·s] | viscosity, 313.15 K [mPa·s]
x2 = 0 | 853.7 | 849.5 | 0.5652 | 0.5294
x2 = 0.1034 | 831.5 | 827.4 | 0.5217 | 0.4945
x2 = 0.2048 | 810.6 | 806.5 | 0.4925 | 0.4631
x2 = 0.2931 | 793 | 788.8 | 0.4625 | 0.4393
x2 = 0.3754 | 777.2 | 773 | 0.44 | 0.419
x2 = 0.488 | 756.3 | 752.2 | 0.4195 | 0.3986
x2 = 0.5929 | 737.7 | 733.6 | 0.4061 | 0.3807
x2 = 0.6899 | 720.9 | 716.7 | 0.3859 | 0.3669
x2 = 0.8051 | 701.8 | 697.7 | 0.369 | 0.3516
x2 = 0.8979 | 687.1 | 683 | 0.3659 | 0.3425

c1ccccc1 [benzene] + CCc1ccccc1
[2], x1 = 1
Conditions | mass density [kg/m3] | viscosity [mPa·s]
308.15 K | 862.9 | 0.5272
313.15 K | 857.7 | 0.4942

CCc1ccccc1 [ethylbenzene]
[1]
Conditions | mass density [kg/m3] | viscosity [mPa·s]
308.15 K | 853.7 | 0.5652
313.15 K | 849.5 | 0.5294
318.15 K | 849.5 | –

C1CCCCCCC1 [cyclooctane] + c1ccccc1
[2]
Conditions | mass density, 308.15 K [kg/m3] | mass density, 313.15 K [kg/m3] | viscosity, 308.15 K [mPa·s] | viscosity, 313.15 K [mPa·s]
x2 = 0 | 823.6 | 819.7 | 1.803 | 1.636
x2 = 0.1004 | 824.9 | 821 | 1.494 | 1.368
x2 = 0.1826 | 826.4 | 822.4 | 1.294 | 1.193
x2 = 0.3035 | 829 | 824.9 | 1.072 | 0.993
x2 = 0.408 | 831.9 | 827.6 | 0.9222 | 0.859
x2 = 0.5122 | 835.2 | 830.9 | 0.8085 | 0.7548
x2 = 0.5243 | 835.7 | 831.4 | 0.7963 | 0.7437
x2 = 0.6891 | 842.7 | 838.1 | 0.6667 | 0.6274
x2 = 0.7904 | 848.1 | 843.3 | 0.6042 | 0.5677
x2 = 0.9001 | 855.1 | 850.1 | 0.5651 | 0.5263

CCCCCCC [heptane] + Cc1ccccc1
[2], x1 = 1
Conditions | mass density [kg/m3] | viscosity [mPa·s]
308.15 K | 671.3 | 0.3497
313.15 K | 667.1 | 0.3329
